Laboratory results reported in article PMC4482662, “Engineered Trehalose Permeable to Mammalian Cells” (PLoS ONE, 2015).
Values belong to the compound of their own block, whether it stands above or below them.

Experiments:
rat hepatocytes [1] = experiment: Uptake and intracellular deacetylation of acetylated trehalose in cultured rat hepatocytes (trehalase assay kit, total after NaOH hydrolysis); type: in vitro ADME; settings: 30 mM incubation
Description: Rat hepatocytes were provided by the Cell Resource Center (CRC) at the Center for Engineering in Medicine at Massachusetts General Hospital. Briefly, hepatocytes were obtained from female Lewis rats using a two-step collagenase protocol. Two or three month old rat (Charles River Laboratories, Wilmington, MA) weighing 180–200 g were used as hepatocyte source and were maintained in accordance with National Research Council guidelines. Experimental protocols in practice at CRC for the use of hepatocytes in this study were approved by the subcommittee on Research Animal Care, Massachusetts General Hospital. Using a modification of the two-step collagenase perfusion method, which involved purification of cell suspension by means of centrifugation over Percoll, approximately 200 million hepatocytes per rat liver with 85–95% viability were routinely obtained, as evaluated by Trypan blue exclusion. Hepatocytes were kept on ice and were plated within 1 h of isolation.
For trehalose loading experiments, 6-well plates were treated with 25μg/mL fibronectin for 1 h prior to plating the hepatocytes, at which point the wells were washed with PBS and the hepatocytes were seeded at 1.2–1.3×10^6 cells/well. The cells were allowed 24–48 h to attach and spread in a 10% (v/v) CO2 incubator at 37°C before they were incubated with acetylated variants of trehalose. […]
The cell lysates were analyzed for protein content using a Bradford Commassie assay for cell count approximation. Trehalose content of cell lysates were measured using a trehalose assay kit following the manufacturer’s protocol. […] This solution was analyzed for total trehalose content against the trehalose controls prepared in a similar fashion, and the concentration was adjusted for the dilution due to addition of NaOH and HCl. To estimate the number of cells, protein content of the cell lysate was assessed using the Pierce^TM Coomassie Plus (Bradford) assay (Life Technologies, Grand Island, NY, USA). […]

[2] = Diffusion-reaction model fitted to the uptake data (membrane permeability and esterase kinetics); type: in vitro ADME, rat; settings: female, Lewis, rat, not told, pH 7.1, read-out: P, membrane permeability
Description: (§1) We assume a lumped passive diffusion model for (n)-O-Ac-Tre across the cell membrane, the rate of change in the intracellular concentration of variants of (n)-O-Ac-Tre, C n, may be expressed using Fick’s first law: d[Cn]/dt=−PnA/V([Cn*]−[Cn]), (1) where P n is the membrane permeability of (n)-O-Ac-Tre. Parameters A and V are cell surface area available for transport and cell volume, respectively. Cn* is the extracellular concentration of (n)-O-Ac-Tre, which is equal to zero for all n<6. For the intracellular de-acetylation of (n)-O-Ac-Tre to (n-1)-O-Ac-Tre by esterase activity, we assume enzymatic reaction kinetics as the following: (n)-O-Ac-Tre+E→knf←knr[(n)-O-Ac-Tre+E]→kncat(n-1)-O-Ac-Tre+E where knf,knr and kncat are the kinetic reaction constants for (n)-O-Ac-Tre variants ranging from 6 to 0. We may assume that the process of de-acetylation of 6-O-Ac-Tre is a series of parallel first order enzymatic reactions competing for enzyme molecules (Fig 2).
(§2) Based on the proposed reaction model, the rate of change in the concentration of (n)-O-Ac-Tre ([C n]) and the intermediate ([C n E]) can be expressed as: d[Cn]/dt=−knf[Cn][En]+knr[CnE]+kn+1cat[Cn+1E]−PnA/V([Cn]−[Cn*]) (2) d[CnE]/dt=knf[Cn][En]−knr[CnE]−kncat[CnE] (3)
(§3) In the above set of equations, [E n] is the fraction of the free enzyme that would interact with [C n]. Assuming quasi-steady-state condition, the left-hand-side of Eq (3) is zero. […] [CnE]=knf[Cn][En]/(knr+kncat) (4)
(§4) We may assume that the probablity of the free enzyme interaction with variants of 6-O-Ac-Tre is directly proportional to respective mole fractions, x n: [En]=[E][Cn]/∑n[Cn]=[E]xn (5) where [E] is the concentration of the free enzyme, which can also be expressed as [E] = [E 0]−∑[C n E]. By replacing Eq (5) in Eq (4), summation over n, and rearranging, we get: [E]=[E0]/1+∑([Cn][xn]/Knm) (6) where Knm=knr+kncat/knf is equivalent of the Michaelis-Menten constant for the enzymatic break-down of (n)-O-Ac-Tre variant. After substituting Eq (6) and Eq (4) in Eq (2) and rearranging, we can propose the rate of change in the concentration of (n)-O-Ac-Tre as the following: d[Cn]/dt=−Vnmax[Cn]xn/Knm(1+∑([Cn][xn]/Knm))+Vn+1max[Cn+1]xn+1/Kn+1m(1+∑([Cn][xn]/Knm))+PnA/V([Cn*]−[Cn]) (7) where Vnmax=kncat[E0] . For trehalose and 6-O-Ac-Tre, the first and second terms on the rights hand side of […] are omitted, respectively. Eq (7) is the general form of the Michaelis-Menten formulation of a multi-step enzymatic reaction for this specific case.
(§5) The permeability coefficient P n, and the coefficients Vnmax and K n in the above list of equations are unknown since no data is available in the literature on these novel molecules to be used in the model. Therefore, the values of these parameters were obtained by fitting the model to the data using a custom-written code in MATLAB (The MathWorks, Natick, MA, USA).
(§6) The proposed diffusion-reaction model in the Methods section allows calculating the permeability coefficients for 6-O-Ac-Tre by fitting the model to the experimental results for 6-O-Ac-Tre. First, we made a few simplifying assumptions. […] We also assumed that the enzymatic kinetics of the de-acetylation process were similar for all the steps of hydrolysis of (n)-O-Ac-Tre to (n-1)-O-Ac-Tre. Therefore, Knm=K^m and Vnmax=V^max for n≤6.
(§7) The model was fit to 3 separate data sets obtained from incubation of cells with 5, 15 and 30 mM 6-O-Ac-Tre, each obtained consisting out of total trehalose and total (n)-O-Ac-Tre variants concentration data (Fig 4, also see S1 Fig). The model was fit to the data up to 9 h incubation. The results are plotted in Fig 4. Using only 3 fitting parameters, the model fit all the 6 data sets very closely with nonlinear regression coefficient R^2 values >0.92. By increasing the incubation concentration from 5 to 30 mM, the value of permeability increased from 2.2×10^−9 to 8.0×10^−9 m s^-1 resulting in an average of 5.0±3.4×10^−9 m s^-1.

rat hepatocytes [3] = experiment: as above; type: in vitro ADME
Description: as §1, §2, §3, §4, §5, §6, §7

rat hepatocytes [4] = experiment: MTT cell viability assay after loading; type: cell-based; settings: 48 h after loading with 30 mM
Experimental: To evaluate cell viability after incubation with acetylated trehalose compared to control group, […] 0.5 mg/ml. The cells were incubated with the MTT reagent for 2 hrs. At the end of incubation, the MTT reagent was removed and the cells were incubated with DMSO for 10 min to dissolve all crystallized formazan. Then, the concentration of formazan was assayed by reading the absorption values of the DMSO solution in a spectrophotometric plate reader at 560 nm.

rat hepatocytes [5] = experiment: Hepatocyte albumin secretion ELISA, 14-day follow-up after loading; type: cell-based; set-up: dose or concentration left out as unconfirmed
Experimental: The hepatocytes were seeded at 0.6×10^6 cell/well on the collagen gel in 12-well plates. Collagen gel was formed by the addition of 200 μL of collagen solution to each well and incubation for 20 min at 37°C. The cells were allowed to attach and spread at least 24 h before the experiments. […] After the collagen solution solidified, 0.5 mL of medium was added per well and the plate was incubated at 10% CO2 and 37°C. Every 24 h for 14 days, the medium from each well was separately collected and 0.5 mL fresh medium was added to each well. The collected samples were stored at -80°C freezer until analyzed.
Albumin secretion was assayed following an ELISA protocol developed in-house. Briefly, 96-well high-binding ELISA plates were coated with 5 μg/well rat albumin in 100 μL PBS and incubated overnight at 4 °C. Coated plates were washed with PBS-Tween (0.05%) at least 3 times and 50 μL of the media or standards were added to wells in the plate. Albumin antibody was diluted 1:10000 in PBS-tween and 50 μL was added to each well and incubated overnight at 4 °C. At the end of incubation, the plates were washed with PBS-0.05% Tween at least 3 times. A substrate solution of o-phenylenediamine dihydro-chloride (OPD, 400 μg/mL) and 4 μM H2O2 was prepared in a citric acid buffer. […] Reaction was stopped by addition of 50 μL 8N sulfuric acid and the difference in absorbance was measured at 490 nm.

rat hepatocytes [6] = experiment: Mitochondrial membrane potential (JC-1, Mito-Tracker Red) after loading; type: cell-based; settings: after 6 h incubation
Experimental: To determine mitochondrial function after incubation with acetylated trehalose, we used JC-1 for membrane potential and Mito-Tracker Red CMRox for imaging following the manufacturers’ protocols. The hepatocytes were seeded in fibronectin-coated plates and were allowed to attach and spread for 24–48 h. Then, the cells were incubated with 30 mM 6-O-Ac-Tre and 25 mM HEPES for 6 h, after which the wells were washed with excess medium and the cells incubated for 24 h before the assay. Immediately upon the start of incubation with staining agents, the plates were placed in the fluorescent plate reader and the fluorescence was read for 30 min at 579/599 nm excitation/emission wavelengths for Mito-Tracker and at 485 nm excitation and 530/590 nm emission wavelengths for the green and red channels respectively of JC-1. For imaging mitochondria, the hepatocytes were cultured on collagen-coated glass cover slips for 48 h, and were stained with Mito-Tracker Red 24 h after the incubation with 6-O-Ac-Tre for 6 h. The control group was prepared without incubation with 6-O-Ac-Tre. The cover slips were then washed with excess PBS and imaged using a Zeiss microscope with fluorescence capability.

rat hepatocytes [7] = experiment: Overall morphology of hepatocytes after loading; type: cell-based; settings: post-loading incubation after 15 and 30 mM for 6 h
Experimental: We next examined the long-term functional activity of hepatocytes after incubation with 6-O-Ac-Tre. The cells were incubated for 14 days following the incubation with 15 and 30 mM 6-O-Ac-Tre for 6 h (Fig 5). During the post-loading incubation, the cells were examined for overall morphology, viability and the albumin secretion. Mitochondrial membrane potential (ΔΨ) was also examined.

Water solubility = type: physicochemical

Compound: CC(=O)OC1C(OC2OC(CO)C(O)C(OC(C)=O)C2OC(C)=O)OC(CO)C(O)C1OC(C)=O (stereo not shown) [4-O-Ac-Tre, trehalose tetraacetate]
enhancement of membrane permeability over regular trehalose (rat hepatocytes [1]): did not observe a significant enhancement of the permeability

uptake compared with trehalose, 2-Act-Tre and 4-Act-Tre (rat hepatocytes [1]): at least one order of magnitude higher | Papp at 9 h ([2]; Average±S.D. over 5, 15, 30 mM): 0.5 ×10⁻⁶ cm/s | Papp at 9 h, 5 mM ([2]; C* 5 mM, fit up to 9 h): 0.22 ×10⁻⁶ cm/s | Papp at 9 h, 15 mM ([2]; C* 15 mM, fit up to 9 h): 0.39 ×10⁻⁶ cm/s | Papp at 9 h, 30 mM ([2]; C* 30 mM, fit up to 9 h): 0.8 ×10⁻⁶ cm/s | K^m of intracellular esterase deacetylation (rat hepatocytes [3]; Average±S.D. over 5, 15, 30 mM): 0.097 ± 0.006 mM | V^max of intracellular esterase deacetylation (rat hepatocytes [3]; Average±S.D. over 5, 15, 30 mM): 0.0167 ± 0.01 mM/s | K^m of intracellular esterase deacetylation (rat hepatocytes [3]; C* 5 mM): 0.09 mM | V^max of intracellular esterase deacetylation (rat hepatocytes [3]; C* 5 mM): 0.007 mM/s | K^m of intracellular esterase deacetylation (rat hepatocytes [3]; C* 15 mM): 0.1 mM | V^max of intracellular esterase deacetylation (rat hepatocytes [3]; C* 15 mM): 0.016 mM/s | K^m of intracellular esterase deacetylation (rat hepatocytes [3]; C* 30 mM): 0.1 mM | V^max of intracellular esterase deacetylation (rat hepatocytes [3]; C* 30 mM): 0.027 mM/s | K m (rat hepatocytes [3]; constant from 5 to 30 mM incubation): ~ 0.1 mM | average conversion rate by esterases (rat hepatocytes [3]; hydrolysis of acetylated trehalose): 60 ± 36 mM/h | mitochondrial ΔΨ versus control (Mito-Tracker Red, JC-1 ratio) (rat hepatocytes [6]): no significant difference | overall morphology and lipid droplet formation versus control (rat hepatocytes [7]): minimal changes
Compound: CC(=O)OC1C(CO)OC(OC2OC(CO)C(OC(C)=O)C(OC(C)=O)C2OC(C)=O)C(OC(C)=O)C1OC(C)=O (stereo not shown) [6-O-Ac-Tre, trehalose hexaacetate]
MTT viability versus control (rat hepatocytes [4]): no significant difference | albumin secretion versus control (rat hepatocytes [5]): eventually increased to similar levels as the control group within 10 days

water solubility (Water solubility): not water soluble
Compound: CC(=O)OCC1OC(OC2OC(COC(C)=O)C(OC(C)=O)C(OC(C)=O)C2OC(C)=O)C(OC(C)=O)C(OC(C)=O)C1OC(C)=O (stereo not shown) [8-O-Ac-Tre]

Compound: CC(=O)OCC1OC(OC2OC(COC(C)=O)C(O)C(O)C2O)C(O)C(O)C1O (stereo not shown) [trehalose diacetate]
enhancement of membrane permeability over regular trehalose (rat hepatocytes [1]): did not observe a significant enhancement of the permeability
